The term IC50 denotes the concentration that gives 50% inhibition. High values mean a need for much substance, low ones inhibition by little substance.

Five compounds from patent publication US20230000869A1, “NOVEL ALK2 INHIBITORS AND METHODS FOR INHIBITING BMP SIGNALING” (The Brigham and Women's Hospital, Inc., priority 2017, published 2023) can be followed below.

One assay addresses T1, ALK2 (Homo sapiens, UniProt Q04771).
T1 construct: purchased Life technology (Fredrick, Md.) and/or CARNA BIOSCIENCES Inc. (Kobe, Japan)
T1 sequence (Q04771 21-509): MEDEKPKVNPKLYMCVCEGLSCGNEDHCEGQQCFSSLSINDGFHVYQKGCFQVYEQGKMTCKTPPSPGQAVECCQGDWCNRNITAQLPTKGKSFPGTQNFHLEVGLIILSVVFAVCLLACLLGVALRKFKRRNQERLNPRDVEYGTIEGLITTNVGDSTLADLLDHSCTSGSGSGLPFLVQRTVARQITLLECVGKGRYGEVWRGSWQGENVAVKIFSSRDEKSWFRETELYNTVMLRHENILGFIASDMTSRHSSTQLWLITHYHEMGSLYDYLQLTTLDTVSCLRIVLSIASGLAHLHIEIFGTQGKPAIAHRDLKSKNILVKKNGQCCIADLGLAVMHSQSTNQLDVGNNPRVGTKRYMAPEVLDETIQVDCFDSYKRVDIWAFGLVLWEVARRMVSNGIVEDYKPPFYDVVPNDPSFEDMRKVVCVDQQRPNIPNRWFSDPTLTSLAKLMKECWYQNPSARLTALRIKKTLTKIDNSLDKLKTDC
Put plainly: TR-FRET enzymatic assay, ALK2 kinase, 1536-well. As to conditions: for IC50 / ALK2 Span: TR-FRET; for IC50: 10 nM ALK, Ulight topo II substrate 50 nM, ATP 10 uM (Table 1); for ALK2 Span: span of the concentration-response curve. Format: biochemical. An excerpt:
(§1) We have developed six ALK kinase enzyme assays for determination of compound activities on ALK1, ALK2, ALK3, ALK4, ALK5 and ALK6. For the assay development, we had tested a number of substrates and assay conditions that led to the final optimized assay protocols with good assay windows with signal to basal (S/B) ratios above 20 fold for all six ALK assays (FIG. 1). In our knowledge, these ALK kinase assays have not been reported elsewhere.
(§2) ALK1 and ALK2-ALK6 were obtained from Life technology (Fredrick, Md.) and CARNA BIOSCIENCES Inc. (Kobe, Japan). Ulight-DNA Topoisomerase 2 alpha (Thr-1342) peptide and Europium anti-phospho-DNA Topoisomerase 2 alpha (Thr-1342) antibody was from Perkin Elmer Inc. The kinase buffer was composed of 50 mM HEPES pH7.0, 10 mM MgCl2, 3 mM MnCl2, 0.005% Tween-20 and 2 mM DTT. The compound plates and the white solid MB assay plates were purchased from Greiner Bio-one (Monroe, N.C.).
(§3) The binding of Eu-anti-phospho-peptide antibody to the phosphorylated Ulight peptide substrate bring both Eu donor and Ulight acceptor dye into close proximity. Upon excitation at 320-340 nm, the emission energy from Eu donor is transferred to Ulight acceptor dye that will generate light at 665 nm. The intensity light emission is proportional to the level of the peptide phosphorylation by ALKs. The assay was optimized and performed in 1536 plate (Table 1). Briefly, the ALKs enzymatic assay was initiated by dispense 2.5 ul enzyme with a final concentration at 10 nM prepared in 1× kinase reaction buffer. The assay plate was then added with compounds with the Pintool station (23 nl/well compound dilutions in DMSO solution) that was followed by incubation at room temperature for 10 minutes. Then 2.5 ul/well substrate was added in which 50 nM peptide substrate mixed with 10 uM, 100 uM or 1 mM ATP (final concentration). The assay plate was incubated at room temperature for 60 minutes and the kinase reaction was stopped by addition of 5 ul/well of 4 nM Eu-anti-phospho-peptide antibody with 12 mM EDTA prepared in 1× detection buffer. The assay plate was measured in an EnVision plate reader (Perkin Elmer) in the TR-FRET detection mode (excitation at 340 nm and emission at 665 nm).
For orientation: TR-FRET usually uses a lanthanide donor and a delayed reading to cut background.

A further assay deals with T2, ALK6 (Homo sapiens, UniProt O00238).
T2 construct: purchased Life technology (Fredrick, Md.) and/or CARNA BIOSCIENCES Inc. (Kobe, Japan)
The experiment in a line: TR-FRET enzymatic assay, ALK6 kinase, 1536-well. In kind it is biochemical. As to conditions: for IC50: 10 nM ALK, Ulight topo II substrate 50 nM, ATP 10 uM (Table 1); for ALK6 Span: span of the concentration-response curve.
Text: as §1, §2, §3

Another assay has as its system TGFβ. Put plainly: Luciferase reporter gene assay for TGFβ activity (HEK293T SBE-Luc SMAD2/3 reporter, TGFβ agonist). To be noted: Homo sapiens, HEK-293T, TGFβ 5 ng/mL. Format: cell-based. In outline: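 TGFβ activity was measured in HEK293T SBE-Luc cells stimulated with 5 ng/mL TGFβ, at compound 10000-30 nM final. ALK2 activity was measured in C2C12 BRE-Luc cells stimulated with 50 ng/mL BMP6, at compound 1000-0.3 nM final. Compound was preincubated 45 min in 2% FBS medium; after ≥18 h agonist exposure, luminescence was read and inhibition expressed as % signal loss versus background-subtracted agonist controls.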
Background: In a reporter assay the amount or activity of a reporter protein is the signal.

T2 sequence (O00238 14-502): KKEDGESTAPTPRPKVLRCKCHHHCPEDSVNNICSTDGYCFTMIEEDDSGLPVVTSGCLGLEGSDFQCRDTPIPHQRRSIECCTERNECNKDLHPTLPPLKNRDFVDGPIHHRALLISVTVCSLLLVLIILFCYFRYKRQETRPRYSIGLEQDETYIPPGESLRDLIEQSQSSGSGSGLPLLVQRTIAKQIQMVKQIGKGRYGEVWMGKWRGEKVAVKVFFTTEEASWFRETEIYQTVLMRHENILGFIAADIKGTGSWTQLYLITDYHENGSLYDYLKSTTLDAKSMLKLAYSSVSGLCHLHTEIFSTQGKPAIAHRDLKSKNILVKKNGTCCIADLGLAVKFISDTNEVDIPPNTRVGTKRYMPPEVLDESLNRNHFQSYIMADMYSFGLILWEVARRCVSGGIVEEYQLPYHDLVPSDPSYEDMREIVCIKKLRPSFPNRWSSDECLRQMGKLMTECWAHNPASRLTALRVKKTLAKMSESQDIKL

As to `Cc1cc(-c2cnn3cc(N4CCC(N5CCN(C)CC5)CC4)cnc23)c2ccccc2n1` [Compound 8], the IC50 against ALK2 stood at 54.3 nM; on ALK6, 2400 nM; with TGFβ it was 22 nM. For the same compound, the “ALK2 Span” value at ALK2 turned out to be 109.4. In addition, the “ALK6 Span” value on ALK6 was found to be 86.5.
Take `Cc1cc(-c2cnn3cc(N4CCC(N5CCOCC5)CC4)cnc23)c2ccccc2n1` [Compound 11]: on ALK2, the IC50 is 111 nM and the “ALK2 Span” value is approximately 117.5. On ALK6, the IC50 was 2980 nM and the “ALK6 Span” value is reported as 89.9. In the assay on TGFβ, this compound displayed an IC50 of 55 nM.
The matching figures for `COc1cc2c(-c3cnn4cc(N5CCC(N6CCN(C)CC6)CC5)cnc34)ccnc2cc1F` [Compound 15, 7-fluoro-6-methoxy-4-(6-(4-(4-methylpiperazin-1-yl)piperidin-1-yl)pyrazolo[1,5-a]pyrimidin-3-yl)quinoline]: 102 nM, approximately 117.8, 10300 nM, 80.81 and 284 nM.
With `Cc1cc(-c2cnn3cc(N4CCC(N5CCNCC5)CC4)cnc23)c2ccccc2n1` [Compound 34], on ALK2, the midpoint of inhibition, the IC50, lay at 178 nM and the “ALK2 Span” value was approximately 117.8. For the same compound, at ALK6, the IC50 was 4060 nM and the “ALK6 Span” value worked out at 91.28. For the same compound, the IC50 in the assay on TGFβ was 27 nM.
Turning to `c1ccc2c(-c3cnn4cc(-c5ccc(N6CCNCC6)cc5)cnc34)ccnc2c1` [TRND00262637-13], on ALK2 (FIG. 3, ATP 10 uM versus 100 uM or 1 mM), the “activity in ALK2 in the presence of 10, 100, or 1,000 uM ATP” value was “activity reduced in the higher ATP concentrations”.
